Source: patent US8269000B2, “Substituted pyrimidine and triazine compounds” (Gruenenthal GmbH, priority 2008, dated 2012)

Target: T1, rat B1R (Rattus norvegicus, UniProt P97583)
T1 construct: expressed in transfected cells; host or cells: CHO K1 cells
T1 sequence (P97583 1-337): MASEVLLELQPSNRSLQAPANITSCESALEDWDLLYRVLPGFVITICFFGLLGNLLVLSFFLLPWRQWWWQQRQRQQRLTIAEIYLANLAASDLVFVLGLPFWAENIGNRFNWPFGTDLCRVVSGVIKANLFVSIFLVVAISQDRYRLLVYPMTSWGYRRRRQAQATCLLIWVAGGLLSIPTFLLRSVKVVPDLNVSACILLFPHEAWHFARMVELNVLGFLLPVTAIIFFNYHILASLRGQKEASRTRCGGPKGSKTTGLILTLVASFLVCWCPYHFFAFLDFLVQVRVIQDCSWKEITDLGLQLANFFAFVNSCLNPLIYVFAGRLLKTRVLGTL
Assay: FLIPR Ca2+ functional study on bradykinin receptor 1 (rB1R CHO K1 cells)
Format: cell-based
Conditions: % inhibition rat B1R at 10 μM
How it was run: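 CHO K1 cells stably expressing human or rat B1R were loaded with Fluo-4 and read on FLIPR (ex 488/em 540 nm, peak counts). Test compound (10 μM, or a concentration range for IC50) was added first for % activation versus control agonist; after 10-20 min, EC80 Lys-Des-Arg9-bradykinin (human) or Des-Arg9-bradykinin (rat) was added, giving % inhibition of maximum. n=2-3, N≥2.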

Point of comparison: `COc1cc(C)c(S(=O)(=O)N2CCC[C@H]2COc2ccnc(N3CCC4(CC3)C(=O)NCN4c3ccccc3)n2)c(C)c1` [H_CC-024, 8-[4-[[(2S)-1-(4-methoxy-2,6-dimethylphenyl)sulfonyl-2-pyrrlidinyl]methoxy]-2-pyrimidinyl]-4-phenyl-2,4,8-triazaspiro[4.5]decan-1-one], “% inh. (rat B1R) 10 μM” value 97%. Against it:
- COc1cc(C)c(S(=O)(=O)N2c3ccccc3C[C@H]2COc2ccnc(N3CCC(CCN4CCCC4)CC3)n2)c(C)c1 [H_CC-017, (2S)-1-(4-methoxy-2,6-dimethylphenyl)sulfonyl-2-[[2-[4-(2-1-pyrrolidinylethyl)-1-pipendinyl]-4-pyrimidinyl]oxymethyl]indoline] — lower, 93%
- COc1cc(C)c(S(=O)(=O)N2CCCC(Oc3nccc(N4CCC(CCN5CCCCC5)CC4)n3)C2)c(C)c1 (stereo not shown) [G_CC-027] — lower, 63%
- COc1cc(C)c(S(=O)(=O)N2CCC[C@@H]2COc2nccc(N3CCC(CNC(=O)c4ccncc4)(N4CCN(C)CC4)CC3)n2)c(C)c1 [G_CC-054, N-[[1-[2-[[(2R)-1-(4-methoxy-2,6-dimethylphenyl)sulfonyl-2-pyrrolidinyl)methoxy]-4-pyrimidinyl]-4-(4-methyl-1-piperazinyl)-4-pipendinyl]methyl]-4-pyridinecarboxamide] — lower, 80%

Same assay, conditions: CHO-K1, % inhibition rat B1R at 10 μM, read-out: % inh. (rat B1R) 10 μM

Point of comparison: `COc1cc(C)c(S(=O)(=O)N2CCCCC2COc2ccnc(N3CCC(CNC(=O)c4ccncc4)(N4CCN(C)CC4)CC3)n2)c(C)c1` (stereo not shown) [H_CC-031, N-[[1-[4-[[1-(4-methoxy-2,6-dimethylphenyl)sulfonyl-2-piperidinyl]methoxy]-2-pyrimidinyl]-4-(4-methyl-1-piperazinyl)-4-piperidinyl]methyl]-4-pyridinecarboxamide], inhibition at 10 µM 56%. Against it:
- COc1cc(C)c(S(=O)(=O)N2CC(Oc3nccc(N4CCN(CCCN(C)C)CC4)n3)C2)c(C)c1 [G_CC-127, 3-[4-[2-[1-[(4-methoxy-2,6-dimethyl-phenyl)sulfonyl]-azetidin-3-yl]oxy-pyrimidin-4-yl]-piperazin-1-yl]-propyl-dimethyl-amine] — lower, 54%
- COc1cc(C)c(S(=O)(=O)N2CCCCC2COc2nccc(N3CCC(c4nc(-c5ccncc5)no4)CC3)n2)c(C)c1 (stereo not shown) [G_CC-103, 5-[1-[2-[[1-[(4-methoxy-2,6-dimethyl-phenyl)sulfonyl]-piperidin-2-yl]-methoxy]-pyrimidin-4-yl]-piperidin-4-yl]-3-pyridin-4-yl-[1,2,4]oxadiazole] — higher, 93%
- COc1cc(C)c(S(=O)(=O)N2CCCCC2COc2nccc(N(C)CCN3CCC(O)(c4cccnc4)CC3)n2)c(C)c1 (stereo not shown) [G_CC-106, 1-[2-[[2-[[1-[(4-methoxy-2,6-dimethyl-phenyl)sulfonyl]-piperidin-2-yl]-methoxy]-pyrimidin-4-yl]-methyl-amino]ethyl]-4-pyridin-3-yl-piperidin-4-ol] — higher, 95%
- CCCCC1(N(C)C)CCN(CCN(C)c2ccnc(OCC3CCCCN3S(=O)(=O)c3c(C)cc(OC)cc3C)n2)CC1 (stereo not shown) [G_CC-074, 2-(4-butyl-4-dimethylamino-piperidin-1-yl)-ethyl-[2-[[1-[(4-methoxy-2,6-dimethyl-phenyl)sulfonyl]-piperidin-2-yl]-methoxy]-pyrimidin-4-yl]-methyl-amine] — higher, 102%
- COc1cc(C)c(S(=O)(=O)N2CCC[C@H]2COc2ccnc(N3CCC(N4CCN(C)CC4)CC3)n2)c(C)c1 [H_CC-010, 4-[[(2S)-1-(4-methoxy-2,6-dimethylphenyl)sulfonyl-2-pyrrolidinyl]methoxy]-2-[4-(4-methyl-1-piperazinyl)-1-piperidinyl]pyrimidine] — higher, 100%
- COc1cc(C)c(S(=O)(=O)N2CCC[C@H]2COc2nccc(N3CCC(n4c(=O)[nH]c5cc(Cl)ccc54)CC3)n2)c(C)c1 [G_CC-034, 6-chloro-3-[1-[2-[[(2S)-1-(4-methoxy-2,6-dimethylphenyl)sulfonyl-2-pyrrolidinyl]methoxy]-4-pyrimidinyl]-4-piperidinyl]-1H-benzimidazol-2-one] — higher, 93%
- COc1cc(C)c(S(=O)(=O)N2CC(Oc3nccc(N(C)CCN4CCC(c5ccccc5)(N5CCCC5)CC4)n3)C2)c(C)c1 [G_CC-124, [2-[1-[(4-methoxy-2,6-dimethyl-phenyl)sulfonyl]-azetidin-3-yl]oxy-pyrimidin-4-yl]-methyl-[2-(4-phenyl-4-pyrrolidin-1-yl-piperidin-1-yl)-ethyl]amine] — higher, 57%
- COc1cc(C)c(S(=O)(=O)N(C)CCOc2ccnc(N3CCC4(CCN(Cc5ccc(F)cc5)C4=O)CC3)n2)c(C)c1 [H_CC-039, N-[2-[[2-[3-[(4-fluorophenyl)methyl]-4-oxo-3,8-diazaspiro[4.5]decan-8-yl]-4-pyrimidinyl]oxy]ethyl]-4-methoxy-N,2,6-trimethylbenzenesulfonamide] — lower, 50%
- COc1cc(C)c(S(=O)(=O)N(C)C(COc2nccc(N3CC4CC3CN4Cc3ccc(F)cc3)n2)c2ccccc2)c(C)c1 (stereo not shown) [G_CC-065, N-[2-[[4-[2-[(4-fluorophenyl)methyl]-2,5-diazabicyclo[2.2.1]heptan-5-yl]-2-pyrimidinyl]oxy]-1-phenylethyl]-4-methoxy-N,2,6-trimethylbenzenesulfonamide] — higher, 58%
- COc1cc(C)c(S(=O)(=O)N2CCC[C@H]2COc2nccc(N3CCC(O)(c4ccccn4)CC3)n2)c(C)c1 [G_CC-083, 1-[2-[[(2S)-1-[(4-methoxy-2,6-dimethyl-phenyl)sulfonyl]-pyrrolidin-2-yl]-methoxy]-pyrimidin-4-yl]-4-pyridin-2-yl-piperidin-4-ol] — higher, 62%
- COc1cc(C)c(S(=O)(=O)N(C)C(COc2nccc(N3CCC4(CCN(Cc5ccccc5)C4)C3)n2)c2ccccc2)c(C)c1 (stereo not shown) [G_CC-068, N-[2-[[4-(3-benzyl-3,7-diazaspiro[4.4]nonan-7-yl)-2-pyrimidinyl]oxy]-1-phenylethyl]-4-methoxy-N,2,6-trimethylbenzenesulfonamide] — higher, 68%
- CCCCC1(N(C)C)CCN(c2ccnc(OCCN(C)S(=O)(=O)c3c(C)cc(OC)cc3C)n2)CC1 [G_CC-089, N-[2-[4-(4-butyl-4-dimethylamino-piperidin-1-yl)-pyrimidin-2-yl]oxy-ethyl]-4-methoxy-N,2,6-trimethyl-benzenesulfonic acid amide] — higher, 93%
- O=S(=O)(c1cccc(C(F)(F)F)c1)N(CCCc1ccnc(N2CCC3(CCN(c4ccncc4)CC3)CC2)n1)C1CC1 [Example I-008, N-cyclopropyl-N-[3-[2-(9-pyridin-4-yl-3,9-diazaspiro[5.5]undecan-3-yl)-pyrimidin-4-yl]-propyl]-3-(trifluoromethyl)-benzenesulfonic acid amide] — higher, 94%
- COc1cc(C)c(S(=O)(=O)N2CCCCC2COc2ccnc(N(C)CCN3CCC(Oc4ccncc4)CC3)n2)c(C)c1 (stereo not shown) [H_CC-049, [4-[[1-[(4-methoxy-2,6-dimethyl-phenyl)sulfonyl]-piperidin-2-yl]-methoxy]-pyrimidin-2-yl]-methyl-[2-(4-pyridin-4-yloxy-piperidin-1-yl)-ethyl]amine] — higher, 94%
- COc1cc(C)c(S(=O)(=O)N2CCCCC2COc2nccc(N3CCC(Oc4ccccn4)CC3)n2)c(C)c1 (stereo not shown) [G_CC-078, 2-[[1-[(4-methoxy-2,6-dimethyl-phenyl)sulfonyl]-piperidin-2-yl]-methoxy]-4-(4-pyridin-2-yloxy-piperidin-1-yl)-pyrimidine] — higher, 98%
- CCCCC1(N(C)C)CCN(CCN(C)c2ccnc(OCCN(C)S(=O)(=O)c3c(C)cc(OC)cc3C)n2)CC1 [G_CC-120, N-[2-[4-[2-(4-butyl-4-dimethylamino-piperidin-1-yl)-ethyl-methyl-amino]-pyrimidin-2-yl]oxy-ethyl]-4-methoxy-N,2,6-trimethyl-benzenesulfonic acid amide] — higher, 86%
- COc1cc(C)c(S(=O)(=O)N2CCCCC2COc2nccc(N3CCC4(CCN(Cc5ccccc5)C4)C3)n2)c(C)c1 (stereo not shown) [G_CC-022, 3-benzyl-7-[2-[[1-(4-methoxy-2,6-dimethylphenyl)sulfonyl-2-piperidinyl]methoxy]-4-pyrimidinyl]-3,7-diazaspiro[4.4]nonane] — higher, 104%
- COc1cc(C)c(S(=O)(=O)N2CCC[C@H]2COc2nccc(N3CC4CC3CN4Cc3ccncc3)n2)c(C)c1 (stereo partly drawn) [G_CC-058, 5-[2-[[(2S)-1-(4-methoxy-2,6-dimethylphenyl)sulfonyl-2-pyrrolidinyl)methoxy]-4-pyrimidinyl]-2-(4-pyridylmethyl)-2,5-diazabicyclo[2.2.1]heptane] — higher, 93%
- CCCCC1(N(C)C)CCN(CCN(C)c2nccc(OC3CN(S(=O)(=O)c4c(C)cc(OC)cc4C)C3)n2)CC1 [H_CC-071, 2-(4-butyl-4-dimethylamino-piperidin-1-yl)-ethyl-[4-[1-[(4-methoxy-2,6-dimethyl-phenyl)sulfonyl]-azetidin-3-yl]oxy-pyrimidin-2-yl]-methyl-amine] — lower, 55%
- COc1cc(C)c(S(=O)(=O)N2c3ccccc3C[C@H]2COc2ccnc(N(C)CCN3CCC(c4ccccc4)(N(C)C)CC3)n2)c(C)c1 [H_CC-057, 2-(4-dimethylamino-4-phenyl-piperidin-1-yl)-ethyl-[4-[[(2S)-1-[(4-methoxy-2,6-dimethyl-phenyl)sulfonyl]-2,3-dihydro-1H-indol-2-yl]-methoxy]-pyrimidin-2-yl]-methyl-amine] — higher, 98%
